Source: ChEMBL document CHEMBL3864133, “Discovery of a Potent and Selective in Vivo Probe (GNE-272) for the Bromodomains of CBP/EP300” (J Med Chem, 2016)
Activity calls are given as the source filed them. The rule behind the calls is not given here.

Legend:
[1] = Apparent permeability of the compound across apical side to basolateral side in MDCK cells at 10 uM measured after 180 mins by LC-MS/MS analysis; assay type: ADME, cell-based, Canis lupus familiaris; settings: dog
[2] = Protein binding in nu/nu mouse plasma at 5 uM measured after 4 hrs by LC-MS/MS analysis; assay type: ADME, cell-free; settings: read-out: PPB (converted)
[3] = Clearance in nu/nu mouse at 1 mg/kg, iv by LC-MS/MS analysis; assay type: ADME, organism-based; settings: in vivo
[4] = Half life in nu/nu mouse at 1 mg/kg, iv or 100 mg/kg, po by LC-MS/MS analysis; assay type: ADME, organism-based; settings: in vivo
[5] = Cmax in nu/nu mouse at 100 mg/kg, po by LC-MS/MS analysis; assay type: ADME, organism-based; parameters: dose 100 mg/kg, route oral; settings: in vivo
[6] = fCmax in nu/nu mouse at 100 mg/kg, po by LC-MS/MS analysis; assay type: ADME, organism-based; settings: in vivo
Cytochrome P450 3A4 [7] = biological target: T1, Cytochrome P450 3A4 (Homo sapiens, UniProt P08684); test: Inhibition of CYP3A4 in human liver microsomes assessed as formation of 1-hydroxymidazolam from midazolam measured after 10 mins in presence of NADPH by LC-MS/MS analysis; assay type: ADME
Cytochrome P450 3A4 [8] = biological target: T1, Cytochrome P450 3A4; test: Inhibition of CYP3A4 in human liver microsomes assessed as formation of 6beta-hydroxytestosterone from testosterone measured after 10 mins in presence of NADPH by LC-MS/MS analysis; assay type: ADME; settings: read-out: INH
Cytochrome P450 1A2 = Cytochrome P450 1A2 (Homo sapiens, UniProt P05177); test: Inhibition of CYP1A2 in human liver microsomes assessed as formation of acetaminophen from phenacetin measured after 30 mins in presence of NADPH by LC-MS/MS analysis; assay type: ADME; settings: 0.5 h
Cytochrome P450 2C19 = Cytochrome P450 2C19 (Homo sapiens, UniProt P33261); test: Inhibition of CYP2C19 in human liver microsomes assessed as formation of 4-hydroxymephenytoin from mephenytoin measured after 40 mins in presence of NADPH by LC-MS/MS analysis; assay type: ADME
Cytochrome P450 2D6 = Cytochrome P450 2D6 (Homo sapiens, UniProt P10635); test: Inhibition of CYP2D6 in human liver microsomes assessed as formation of dextrophan from dextromethorphan measured after 10 mins in presence of NADPH by LC-MS/MS analysis; assay type: ADME
[9] = biological target: T2, CREB-binding protein/Histone acetyltransferase p300 (Homo sapiens, UniProt Q09472+Q92793); test: Inhibition of CBP/EP300 in human HL60 cells assessed as decrease in MYC expression at 5 uM measured after 4 hrs by RT-PCR analysis relative to DMSO control; assay type: cell-based; settings: HL-60
T2 sequence (Q09472 whole entry, looked up): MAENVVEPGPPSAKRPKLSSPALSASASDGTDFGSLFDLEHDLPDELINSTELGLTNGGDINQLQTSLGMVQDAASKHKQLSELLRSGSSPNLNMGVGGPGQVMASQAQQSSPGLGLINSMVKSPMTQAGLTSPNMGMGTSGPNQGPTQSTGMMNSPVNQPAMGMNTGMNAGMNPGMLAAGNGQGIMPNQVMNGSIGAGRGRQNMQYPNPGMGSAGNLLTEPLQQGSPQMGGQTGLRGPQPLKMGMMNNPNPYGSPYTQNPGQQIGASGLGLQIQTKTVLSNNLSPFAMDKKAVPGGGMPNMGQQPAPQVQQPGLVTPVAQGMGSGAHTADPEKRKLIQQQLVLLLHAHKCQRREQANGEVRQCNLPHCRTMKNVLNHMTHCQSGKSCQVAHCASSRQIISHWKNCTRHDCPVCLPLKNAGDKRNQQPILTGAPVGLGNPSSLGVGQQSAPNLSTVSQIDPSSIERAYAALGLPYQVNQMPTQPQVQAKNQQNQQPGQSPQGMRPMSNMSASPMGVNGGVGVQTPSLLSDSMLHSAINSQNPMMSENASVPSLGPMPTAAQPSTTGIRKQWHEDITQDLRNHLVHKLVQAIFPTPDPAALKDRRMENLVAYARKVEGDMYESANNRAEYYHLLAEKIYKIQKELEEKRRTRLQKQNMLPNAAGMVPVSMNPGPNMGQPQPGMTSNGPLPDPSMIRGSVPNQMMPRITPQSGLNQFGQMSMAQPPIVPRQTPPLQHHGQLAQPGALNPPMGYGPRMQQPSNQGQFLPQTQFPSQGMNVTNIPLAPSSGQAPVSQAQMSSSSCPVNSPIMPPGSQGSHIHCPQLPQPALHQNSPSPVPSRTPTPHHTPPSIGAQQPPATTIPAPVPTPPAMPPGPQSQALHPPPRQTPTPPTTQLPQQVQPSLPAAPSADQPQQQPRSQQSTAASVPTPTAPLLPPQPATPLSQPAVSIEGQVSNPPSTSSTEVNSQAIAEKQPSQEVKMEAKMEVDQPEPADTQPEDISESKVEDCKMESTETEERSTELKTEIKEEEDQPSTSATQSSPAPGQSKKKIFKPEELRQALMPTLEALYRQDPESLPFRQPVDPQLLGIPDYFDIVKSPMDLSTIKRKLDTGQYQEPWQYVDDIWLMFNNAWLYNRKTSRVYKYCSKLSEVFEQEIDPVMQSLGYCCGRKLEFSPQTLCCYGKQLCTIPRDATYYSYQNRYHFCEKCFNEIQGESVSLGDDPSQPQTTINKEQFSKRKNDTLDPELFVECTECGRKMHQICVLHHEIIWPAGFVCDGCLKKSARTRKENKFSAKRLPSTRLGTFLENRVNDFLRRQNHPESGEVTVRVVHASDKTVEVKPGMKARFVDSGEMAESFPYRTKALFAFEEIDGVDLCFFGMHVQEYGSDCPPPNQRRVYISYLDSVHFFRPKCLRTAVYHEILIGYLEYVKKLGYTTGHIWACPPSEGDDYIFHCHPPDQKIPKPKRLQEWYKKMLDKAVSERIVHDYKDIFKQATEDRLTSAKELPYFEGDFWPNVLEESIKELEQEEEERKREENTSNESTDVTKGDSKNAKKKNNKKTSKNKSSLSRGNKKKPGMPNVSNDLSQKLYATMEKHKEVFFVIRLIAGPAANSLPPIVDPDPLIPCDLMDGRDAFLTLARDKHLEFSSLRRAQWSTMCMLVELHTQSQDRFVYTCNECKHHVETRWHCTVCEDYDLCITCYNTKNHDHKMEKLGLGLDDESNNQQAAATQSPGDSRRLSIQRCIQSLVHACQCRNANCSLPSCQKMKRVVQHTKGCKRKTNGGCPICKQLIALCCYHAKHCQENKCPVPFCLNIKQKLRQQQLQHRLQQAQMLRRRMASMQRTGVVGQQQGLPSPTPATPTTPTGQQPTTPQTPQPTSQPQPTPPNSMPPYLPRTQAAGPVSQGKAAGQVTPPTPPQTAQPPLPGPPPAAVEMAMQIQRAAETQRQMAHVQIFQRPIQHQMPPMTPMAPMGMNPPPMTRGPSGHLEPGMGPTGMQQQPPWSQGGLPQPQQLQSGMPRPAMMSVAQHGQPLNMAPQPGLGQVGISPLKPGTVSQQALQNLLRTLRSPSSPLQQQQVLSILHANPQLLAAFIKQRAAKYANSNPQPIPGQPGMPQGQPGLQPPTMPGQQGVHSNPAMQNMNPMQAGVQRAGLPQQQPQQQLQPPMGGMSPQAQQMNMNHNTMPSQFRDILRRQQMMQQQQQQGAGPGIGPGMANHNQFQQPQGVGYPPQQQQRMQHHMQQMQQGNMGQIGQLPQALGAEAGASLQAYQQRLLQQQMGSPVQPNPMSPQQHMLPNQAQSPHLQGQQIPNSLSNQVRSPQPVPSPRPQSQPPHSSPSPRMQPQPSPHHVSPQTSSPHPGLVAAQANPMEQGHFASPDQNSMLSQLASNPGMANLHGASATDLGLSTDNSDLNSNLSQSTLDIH
T2 sequence (Q92793 whole entry, looked up): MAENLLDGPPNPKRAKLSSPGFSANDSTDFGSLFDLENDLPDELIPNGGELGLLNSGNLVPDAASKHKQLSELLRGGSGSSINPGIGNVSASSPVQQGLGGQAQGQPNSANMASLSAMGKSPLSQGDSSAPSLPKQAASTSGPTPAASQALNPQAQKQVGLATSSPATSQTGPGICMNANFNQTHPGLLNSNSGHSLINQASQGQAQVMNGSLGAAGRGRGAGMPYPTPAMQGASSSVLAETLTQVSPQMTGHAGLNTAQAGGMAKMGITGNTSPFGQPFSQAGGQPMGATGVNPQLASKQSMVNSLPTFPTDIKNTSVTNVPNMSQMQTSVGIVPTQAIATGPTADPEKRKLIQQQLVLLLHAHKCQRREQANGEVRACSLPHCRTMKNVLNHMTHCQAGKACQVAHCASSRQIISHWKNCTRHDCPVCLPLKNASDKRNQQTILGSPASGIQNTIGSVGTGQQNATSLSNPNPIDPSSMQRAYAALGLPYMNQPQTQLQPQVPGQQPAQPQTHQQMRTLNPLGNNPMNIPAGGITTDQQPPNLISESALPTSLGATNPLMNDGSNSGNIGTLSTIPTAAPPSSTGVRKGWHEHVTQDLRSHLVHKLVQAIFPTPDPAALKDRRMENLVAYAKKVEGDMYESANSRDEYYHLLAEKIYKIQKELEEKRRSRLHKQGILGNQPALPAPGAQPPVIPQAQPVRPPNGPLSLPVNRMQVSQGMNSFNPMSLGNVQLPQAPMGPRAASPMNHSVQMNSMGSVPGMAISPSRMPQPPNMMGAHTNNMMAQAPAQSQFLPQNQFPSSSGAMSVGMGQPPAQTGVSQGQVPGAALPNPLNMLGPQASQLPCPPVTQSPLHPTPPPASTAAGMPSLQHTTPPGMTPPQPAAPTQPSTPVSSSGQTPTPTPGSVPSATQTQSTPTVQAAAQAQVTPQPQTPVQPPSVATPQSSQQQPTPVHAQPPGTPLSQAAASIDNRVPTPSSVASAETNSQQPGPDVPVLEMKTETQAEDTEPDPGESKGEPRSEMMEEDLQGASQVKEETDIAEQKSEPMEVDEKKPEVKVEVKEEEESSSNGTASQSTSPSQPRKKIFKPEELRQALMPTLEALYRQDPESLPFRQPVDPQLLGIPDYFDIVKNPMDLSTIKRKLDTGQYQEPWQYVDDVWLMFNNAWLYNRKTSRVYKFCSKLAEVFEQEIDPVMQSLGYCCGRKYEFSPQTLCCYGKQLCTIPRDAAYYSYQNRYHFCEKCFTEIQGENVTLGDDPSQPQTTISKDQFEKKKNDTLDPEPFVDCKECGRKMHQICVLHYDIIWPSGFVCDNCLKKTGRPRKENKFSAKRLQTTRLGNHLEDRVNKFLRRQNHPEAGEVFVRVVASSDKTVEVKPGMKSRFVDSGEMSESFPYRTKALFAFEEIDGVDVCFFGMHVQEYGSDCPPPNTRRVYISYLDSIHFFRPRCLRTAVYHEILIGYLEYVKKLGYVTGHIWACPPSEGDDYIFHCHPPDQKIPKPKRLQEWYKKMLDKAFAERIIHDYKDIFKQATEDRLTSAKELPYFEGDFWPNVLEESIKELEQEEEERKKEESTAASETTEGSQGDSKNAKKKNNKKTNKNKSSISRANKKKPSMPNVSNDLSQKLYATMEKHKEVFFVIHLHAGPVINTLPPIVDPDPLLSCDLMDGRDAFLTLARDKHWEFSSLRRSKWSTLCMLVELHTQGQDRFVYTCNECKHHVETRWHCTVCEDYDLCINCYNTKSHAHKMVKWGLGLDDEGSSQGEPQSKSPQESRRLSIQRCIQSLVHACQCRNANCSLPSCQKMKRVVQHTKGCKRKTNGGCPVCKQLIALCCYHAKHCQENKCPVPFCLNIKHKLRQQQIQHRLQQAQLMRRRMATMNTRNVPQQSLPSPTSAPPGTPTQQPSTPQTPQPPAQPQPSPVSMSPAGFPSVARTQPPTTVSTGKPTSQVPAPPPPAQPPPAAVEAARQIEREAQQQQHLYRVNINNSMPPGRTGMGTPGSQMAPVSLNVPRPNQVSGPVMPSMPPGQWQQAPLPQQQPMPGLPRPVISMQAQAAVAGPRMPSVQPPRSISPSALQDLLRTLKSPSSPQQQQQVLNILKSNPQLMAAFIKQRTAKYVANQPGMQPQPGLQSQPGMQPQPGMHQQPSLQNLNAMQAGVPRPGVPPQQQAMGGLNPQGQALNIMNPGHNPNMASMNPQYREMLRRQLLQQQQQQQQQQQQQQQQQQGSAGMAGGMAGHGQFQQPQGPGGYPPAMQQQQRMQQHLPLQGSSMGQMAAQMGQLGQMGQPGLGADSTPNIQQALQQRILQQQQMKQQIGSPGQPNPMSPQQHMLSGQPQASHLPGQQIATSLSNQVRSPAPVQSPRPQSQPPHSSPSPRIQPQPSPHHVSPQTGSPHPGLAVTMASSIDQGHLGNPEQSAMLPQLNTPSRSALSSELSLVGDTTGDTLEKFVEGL

[10] = biological target: T2, CREB-binding protein/Histone acetyltransferase p300; test: Inhibition of CBP/EP300 in human LP-1 cells assessed as decrease in MYC expression at 5 uM measured after 4 hrs by RT-PCR analysis relative to DMSO control; assay type: cell-based
[11] = biological target: T2, CREB-binding protein/Histone acetyltransferase p300; test: Inhibition of CBP/EP300 in human KMS34 cells assessed as decrease in MYC expression at 5 uM measured after 4 hrs by RT-PCR analysis relative to DMSO control; assay type: cell-based
[12] = biological target: T2, CREB-binding protein/Histone acetyltransferase p300; test: Inhibition of CBP/EP300 in human Pfeiffer cells assessed as decrease in MYC expression at 5 uM measured after 4 hrs by RT-PCR analysis relative to DMSO control; assay type: cell-based
[13] = biological target: T2, CREB-binding protein/Histone acetyltransferase p300; test: Inhibition of CBP/EP300 in human MOLM16 cells assessed as suppression of CCND1 expression at 5 uM measured after 4 hrs by RT-PCR analysis relative to DMSO control; assay type: cell-based
[14] = biological target: T2, CREB-binding protein/Histone acetyltransferase p300; test: Inhibition of CBP/EP300 in human MOLM16 cells assessed as suppression of BCL-XL expression at 5 uM measured after 4 hrs by RT-PCR analysis relative to DMSO control; assay type: cell-based
[15] = biological target: T2, CREB-binding protein/Histone acetyltransferase p300; test: Inhibition of CBP/EP300 in human MOLM16 cells assessed as suppression of MCL1 expression at 5 uM measured after 4 hrs by RT-PCR analysis relative to DMSO control; assay type: cell-based
[16] = biological target: T2, CREB-binding protein/Histone acetyltransferase p300; test: Inhibition of CBP/EP300 in human MOLM16 cells assessed as suppression of BCL6 expression at 5 uM measured after 4 hrs by RT-PCR analysis relative to DMSO control; assay type: cell-based
[17] = biological target: T2, CREB-binding protein/Histone acetyltransferase p300; test: Inhibition of CBP/EP300 in human MOLM16 cells assessed as decrease in MYC expression measured after 4 hrs by RT-PCR analysis; assay type: cell-based
Jurkat = test: Antiproliferative activity against human Jurkat cells measured after 6 days by CellTiter-Glo assay; assay type: functional, cell-based
KMS26 = test: Antiproliferative activity against human KMS26 cells measured after 6 days by CellTiter-Glo assay; assay type: functional, cell-based
KMS34 = test: Antiproliferative activity against human KMS34 cells measured after 6 days by CellTiter-Glo assay; assay type: functional, cell-based
Pfeiffer = test: Antiproliferative activity against human Pfeiffer cells measured after 6 days by CellTiter-Glo assay; assay type: functional, cell-based
MOLM16 [18] = test: Antiproliferative activity against human MOLM16 cells measured after 6 days by CellTiter-Glo assay; assay type: functional, cell-based
U-266 = test: Antiproliferative activity against human U266B1 cells measured after 6 days by CellTiter-Glo assay; assay type: functional, cell-based
Kasumi 1 = test: Antiproliferative activity against human Kasumi-1 cells measured after 6 days by CellTiter-Glo assay; assay type: functional, cell-based
THP2 = test: Antiproliferative activity against human THP2 cells measured after 6 days by CellTiter-Glo assay; assay type: functional, cell-based
KMS-11 = test: Antiproliferative activity against human KMS11 cells measured after 6 days by CellTiter-Glo assay; assay type: functional, cell-based
[19] = Decrease in MYC mRNA expression in tumor of SCID beige mouse xenografted with human MOLM16 cells at 10 mg/kg, po administered twice daily via gavage as single dose measured after 2 to 8 hrs by RT-PCR analysis; assay type: functional, organism-based
[20] = Decrease in MYC mRNA expression in tumor of SCID beige mouse xenografted with human MOLM16 cells at 100 mg/kg, po administered twice daily via gavage as single dose measured after 2 hrs by RT-PCR analysis relative to control; assay type: functional, organism-based
[21] = Antitumor activity against human MOLM16 cells xenografted in SCID beige mouse assessed as tumor growth inhibition at 12.5 mg/kg, po BID administered through gavage for 21 days; assay type: functional; settings: read-out: TGI
[22] = Antitumor activity against human MOLM16 cells xenografted in SCID beige mouse assessed as tumor growth inhibition at 25 mg/kg, po BID administered through gavage for 21 days; assay type: functional; settings: read-out: TGI
[23] = Antitumor activity against human MOLM16 cells xenografted in SCID beige mouse assessed as tumor growth inhibition at 50 mg/kg, po BID administered through gavage for 21 days; assay type: functional; settings: read-out: TGI
MOLM16 [24] = test: Antitumor activity against human MOLM16 cells xenografted in SCID beige mouse assessed as tumor growth inhibition compound administered through oral gavage twice daily for 21 days; assay type: functional, cell-based
Mus musculus = test: Inhibition of MYC mRNA expression in SCID beige mouse xenografted with human MOLM16 cells assessed as MYC transcript level at 3 to 100 mg/kg, po administered twice daily via gavage as single dose measured after 24 hrs by RT-PCR analysis relative to control; assay type: functional; parameters: scale not given: the % may be the effect or the level left
[25] = Time at which unbound drug level in SCID beige mouse tumor stays above cellular MYC EC90 at 10 mg/kg, po administered twice daily via gavage as single dose; assay type: ADME, organism-based; settings: in vivo

SMILES: CC(=O)N1CCc2c(c(Nc3ccc(-c4cnn(C)c4)cc3F)nn2[C@@H]2CCOC2)C1
- Papp A→B at 3 h, 10 µM [1]: 15 ×10⁻⁶ cm/s
- fraction unbound at 4 h, 5 µM [2]: 0.16
- clearance [3]: 9.6 mL/min/kg
- half-life [4]: 2 h
- Cmax [5]: 163 µM
- fCmax [6]: 26 µM
- INH (Cytochrome P450 3A4 [7]): > 10 µM
- IC50 (Cytochrome P450 3A4 [8]): > 10000 nM
- INH (Cytochrome P450 1A2): > 10 µM
- INH (Cytochrome P450 2C19): > 10 µM
- INH (Cytochrome P450 2D6): > 10 µM
- inhibition [9]: Active
- inhibition [10]: Active
- inhibition [11]: Active
- inhibition [12]: Active
- inhibition [13]: Active
- inhibition [14]: Active
- inhibition [15]: Active
- inhibition [16]: Active
- EC90 [17]: 621 nM
- Activity (Jurkat): Active
- Activity (KMS26): Active
- Activity (KMS34): Active
- Activity (Pfeiffer): Active
- Activity (MOLM16 [18]): Active
- Activity (U-266): Active
- Activity (Kasumi 1): Active
- Activity (THP2): Active
- Activity (KMS-11): Active
- inhibition [19]: Active
- inhibition [20]: 86%
- inhibition in vivo at 12.5 mg/kg [21]: 46%
- inhibition in vivo at 25 mg/kg [22]: 65%
- inhibition in vivo at 50 mg/kg [23]: 102%
- TGI (MOLM16 [24]): Dose-dependent effect
- Activity (Mus musculus): 150 - 200%
- Time [25]: 24 h
